Assay results as given in the NIST ThermoML archive (doi:10.1021/je700705d).
± gives the expanded uncertainty stated by the source.

Tests used:
[1] = refractive index (Na D-line) (dimensionless); settings: 293.15 K; 101.33 kPa; Liquid; Standard Abbe refractometry
[2] = Liquid; Ebulliometric method (Recirculating still)

## CC(O)C(C)O (centres undefined) [2,3-butanediol]
[1]
  refractive index: 1.4375 ± 0.0007
[2]
  Normal boiling temperature: 181.06 ± 0.2 °C

## CCCCOC(C)=O [butyl ethanoate]
[1]
  refractive index: 1.3941 ± 0.0007
[2]
  Normal boiling temperature: 125.96 ± 0.2 °C
